Assay results as given in patent US6469052B2, “Compounds for the photodecontamination of pathogens in blood” (Cerus Corporation, priority 1993, dated 2002).

What was measured:
HIV-1 = details: concentrations of 64 μM of compound or higher
Description: Pathogen inactivation efficiency of several compounds of the present invention was evaluated by examining the ability of the compounds to inactivate cell-free virus (HIV). Inactivation of cell-free HIV was performed as follows.
As in the R17 assay, small aliquots of the compounds listed in TABLES 10 and 11, below, at the concentrations listed in the table, were added to stock HIV-1 to a total of 0.5 mL. The stock HIV (10^5-10^7 plaque forming units/mL) was in DMEM/15% FBS. […] Controls included HIV-1 stock only, HIV-1 plus UVA only, and HIV-1 plus the highest concentration of each psoralen tested, with no UVA. Post irradiation, all samples were stores frozen at −70° C. until assayed for infectivity by a microtiter plaque assay. Aliquots for measurement of residual HIV infectivity in the samples treated with a compound of the present invention were withdrawn and cultured.
Residual HIV infectivity was assayed using an MT-2 infectivity assay. […] After 24 to 48 hours, the red fluorescence-stained microplaques were visualized by placing the plates on an 8,000 μW/cm^2 304 nm UV light box (Fotodyne, Inc., New Berlin, Wis.). The plaques were counted at a magnification of ×20 to ×25 through a stereomicroscope.

human platelets = details: 100 μM compound
Description: To measure the effects of the present compounds and methods of decontamination on platelet function using these four indicators, four samples were prepared for each compound tested, two control samples and two containing compound. Three units of human platelets were obtained from the Sacramento Blood Center, Sacramento, Calif. These were each transferred under sterile conditions to 50 ml centrifuge tubes, then aliquots of each unit were transferred into a second set of 50 ml sterile centrifuge tubes. To each centrifuge tube containing platelet concentrate (PC), an aliquot of compound stock was added to reach a final concentration of 100 μM of compound. […] The samples were pipetted gently up and down to mix. Then aliquots (either 3 ml or 8 ml) of each sample was transferred to two sterile Teflon™ Medi-bags™ (American Fluoroseal Co., Silver Springs, Md.) (presently owned by The West Company, Lionville, Pa.). Samples were treated in one of two different sized bags, having either 3 ml or 8 ml capacity. […] For each compound tested, two control samples without compound were prepared by again removing aliquots of platelet concentrate (17 ml if using an 8 ml bag, […] if using a 3 ml bag) from the same one of the first set of 50 ml centrifuge tubes from which the compound sample was drawn, and dividing into Medibags, as before. One of each pair of Medibags containing a compound, and one of each pair of control Medibags, were illuminated for 5 Joules/cm^2 on the device described in Example 1, above. Then all experimental and control Medibags were placed on a platelet shaker for storage for 5 days. The same experiments were repeated several times to obtain more statistically meaningful data, as represented by “n”, the number of data points represented, in the graphs of FIGS. 21-24, discussed below.
A Sysmex cell counter was used to measure platelet count in the platelet samples. Samples were diluted 1:3 in blood bank saline.

[1] = system: Salmonella typhimurium TA1537; assay: Ames assay (dark mutagenicity), strain TA1537; details: TA1537 in the presence of S9
From the text: The second property that is important in testing a compound for use in methods of the present invention is mutagenicity. The most widely used mutagen/carcinogen screening assay is the Ames test. This assay is described by D. M. Maron and B. N. Ames in Mutation Research 113: 173 ( 1983) and a specific screen is described in detail in Example 17, below. The Ames test utilizes several unique strains of Salmonella typhimurium that are histidine- dependent for growth and that lack the usual DNA repair enzymes. The frequency of normal mutations that render the bacteria independent of histidine (i.e., the frequency of spontaneous revertants) is low. The test allows one to evaluate the impact of a compound on this revertant frequency.
In this example the compounds of the present invention are tested for their dark mutagenicity using an Ames assay. The procedures used for the Salmonella mutagenicity test as described in detail by Maron and Ames were followed exactly. Maron, D. M. and B. N. Ames, Mutation Research 113: 173 ( 1983). A brief description for each procedure is given here. The tester strains TA97a, TA98, TA100, TA102, TA1537 and TA1538 were obtained from Dr. Ames. TA97a, TA98, TA1537 and TA1538 are frameshift tester strains. TA100 and TA102 are base-substitution tester strains. Upon receipt each strain was cultured under a variety of conditions to confirm the genotypes specific to the strains.
The first tests done with the strains were to determine the range of spontaneous reversion for each of the strains. With each mutagenicity experiment the spontaneous reversion of the tester strains to histidine independence was measured and expressed as the number of spontaneous revertants per plate. This served as the background controls.
For all experiments, the pre-incubation procedure was used. In this procedure one vial of each tester strain was thawed and 20 μL of this culture was added to 6 mL of Oxoid Nutrient Broth #2. This solution was allowed to shake for 10 hours at 37° C. In the pre-incubation procedure, 0.1 mL of this overnight culture was added to each of the required number of sterile test tubes. To half of the tubes 0.5 mL of a 10% S-9 solution containing Aroclor 1254 induced rat liver extract (Molecular Toxicology Inc., Annapolis, Md.), and MgCl2, KCl, glucose-6-phosphate, NADP, and sodium phosphate buffer (Sigma, St. Louis, Mo.) were added. To the other half of the tubes 0.5 mL of 0.2M sodium phospate buffer, pH 7.4, was used in place of the S-9 mixture (the -S9 samples). Finally 0.1 mL of the test solution containing either 0, 0.1, 0.5, 1, 5, 10, 50, 100, 250, or 500 μg/mL of the test compound was added. The 0.7 mL mixture was vortexed and then pre-incubated while shaking for 20 minutes at 37° C. After shaking, 2 mL of molten top agar supplemented with histidine and biotin were added to the 0.7 mL mixture and immediately poured onto a minimal glucose agar plate (volume of base agar was 20 mL). The top agar was allowed 30 minutes to solidify and then the plates were inverted and incubated for 44 hours at 37° C. After incubation the number of revertant colonies on each plate were counted. […] (“n” represents the number of replicates performed for each data point.)
Maron and Ames (1983) describe the conflicting views with regard to the statisical treatment of data generated from the test.

Compound | HIV inactivation activity compared with AMT (HIV-1) | platelet count, Day 5 treated sample versus Day 5 control (human platelets; 5 Joules/cm^2) | platelet count compared with samples treated with light alone (human platelets; 5 Joules/cm^2, 5 days storage) | concentration showing a response [1] [μg/plate]
Cc1oc2c(C)c3oc(=O)cc(C)c3cc2c1COCCN [Compound 2, 4′-(4-amino-2-oxa)butyl-4,5′,8-trimethylpsoralen] | significantly more active than AMT |  |  | 
Cc1oc2c(C)c3oc(=O)cc(C)c3cc2c1CNCCCCN [Compound 6, 4′-(6-amino-2-aza)hexyl-4,5′,8-trimethylpsoralen] |  | counts equivalent to the 5 day control | higher platelet count than samples treated with light alone | 50
